Patent US20210128609A1, “ONCOLOGY TREATMENTS USING ZINC AGENTS” (XYLONIX IP HOLDINGS PTE. LTD., priority 2018, published 2021)

Key:
THP-1 = assay: CellTiter-Glo cell viability, THP-1; format: cell-based
Procedure: (§1) The 50% inhibitory concentration (IC50) was determined in the cancer cell lines using CellTiter-Glo luminescent cell viability assay after incubation with different concentrations of active agents. Each cell line was treated with active Zn(II) agent, a standard chemotherapy drug as reference control, and culture medium as vehicle control. Cell Lines. All cell lines were cultured in media supplemented with 10-15% FBS, at a temperature of 37° C., 5% CO2, and 95% humidity. The reference control drug for all cell lines was cisplatin, to be used for genomic analysis. The cell lines tested, the tissue of origin are shown below in Table 1: Procedure for Determining Half Maximal Inhibition Concentration IC50 • 1. Harvested cells during the logarithmic growth period and count cell number using Count-star. • 2. Adjusted cell concentrations to 4.44×10^4 cells/mL with respective culture medium. • 3. Added 90 μL cell suspensions to two 96-well plates (plates A and B) with the final cell density of 4×10^3 cells/well. (cell concentration was adjusted according to the data base or density optimization assay.) • 4a. Next day: For the plates of TO reading: • 1) Added 10 μL culture medium to each well of plate A for TO reading. • 2) Equilibrated the plate and its content at RT for approximately 30 min. • 3) Added 50 μL CellTiter-Glo reagent to each well. • 4) Mixed content for 5 min on an orbital shaker to induce cell lysis. • 5) Allowed the plate to incubate at RT for 20 min to stabilize luminescent signal. • 6) Recorded luminescence (TO) using EnVision Multi Label Reader. • 4b. For the plates of test reading: • 1) Prepared 10× solution of Zn(II) agent test article. […] The formula for calculating surviving rate is shown below and the absolute IC50 (EC50) was calculated according to the dose-response curve generated by GraphPad Prism 5.0. • 12) The surviving rate (%)=(LumTest article−LumMedium control)/(LumNon-treated−LumMedium control)×100%.

AMO-1 = assay: CellTiter-Glo cell viability, AMO-1; format: cell-based
Procedure: as §1

Calu-3 = assay: CellTiter-Glo cell viability, Calu-3; format: cell-based
Procedure: as §1

JHH-7 = assay: CellTiter-Glo cell viability, JHH-7; format: cell-based
Procedure: as §1

ML-2 = assay: CellTiter-Glo cell viability, ML-2; format: cell-based
Procedure: as §1

Raji = assay: CellTiter-Glo cell viability, Raji; format: cell-based
Procedure: as §1

50 cancer cell lines = assay: Genetic instability mutation analysis of 50 cell line IC50 distribution
Description: Following the 50 cell line screening tests (OmniScreen™) described in Example 6, each cell line was catalogued (yes or no) for the presence of mutations in the following genes by consulting the OncoExpress™ database (Crown Biosciences Inc., Santa Clara, data accession date 18 May 2018˜30 May 2018). • MLH1 (part of the deficient mismatch repair—dMMR-mutations group) • MSH2 (part of the deficient mismatch repair—dMMR-mutations group) • PMS2 (part of the deficient mismatch repair—dMMR-mutations group) • PARP1 • BRCA1 (part of the BRCA1/BRCA2 mutations group) • BRCA2 (part of the BRCA1/BRCA2 mutations group) • TP53
The integrated data were then analyzed using Excel® software (Microsoft, Seattle). Briefly, the sorting algorithm of the Excel® software was used in grouping of the cell lines carrying certain mutations, and in further analysis of the IC50 distribution in each group.
The IC50 distributions among the cell line groups sharing certain genetic mutations were then analyzed for statistical significance.
Statistical analysis was performed using JMP 13 (SAS Institute Inc. Cary, N.C., USA) or Origin 9 (Origin Lab Corp., Northampton, Mass., USA). All data are represented as mean±standard error of the mean (SEM) and were tested for statistical significance using Mann-Whitney U test or analysis of variance (ANOVA). P-values of <0.05 were interpreted as statistically significant.

L-363 = assay: CellTiter-Glo cell viability, L-363; format: cell-based
Procedure: as §1

NAMALWA = assay: CellTiter-Glo cell viability, NAMALWA; format: cell-based
Procedure: as §1

NCI-H929 = assay: CellTiter-Glo cell viability, NCI-H929; format: cell-based
Procedure: as §1

[1] = 96 h, top conc. 50 μg/mL Zn(II) agent, 100 μM cisplatin

N.N.[Cl][Pt][Cl] [Cisplatin]
Absolute IC50 (THP-1; 96 h, CellTiter-Glo): 0.39 µg/mL
% inhibition at top conc. (THP-1; [1]): 99.98%
HillSlope (THP-1; 96 h dose-response fit): −3.03
Absolute IC50 (AMO-1; 96 h, CellTiter-Glo): 0.27 µg/mL
% inhibition at top conc. (AMO-1; [1]): 99.99%
HillSlope (AMO-1; 96 h dose-response fit): −3.34
Absolute IC50 (Calu-3; 96 h, CellTiter-Glo): 0.30 µg/mL
% inhibition at top conc. (Calu-3; [1]): 82.29%
HillSlope (Calu-3; 96 h dose-response fit): −1.15
Absolute IC50 (JHH-7; 96 h, CellTiter-Glo): 0.44 µg/mL
% inhibition at top conc. (JHH-7; [1]): 99.16%
HillSlope (JHH-7; 96 h dose-response fit): −0.80
Absolute IC50 (ML-2; 96 h, CellTiter-Glo): 0.32 µg/mL
% inhibition at top conc. (ML-2; [1]): 100.00%
HillSlope (ML-2; 96 h dose-response fit): −3.28
Absolute IC50 (Raji; 96 h, CellTiter-Glo): 0.50 µg/mL
% inhibition at top conc. (Raji; [1]): 99.57%
HillSlope (Raji; 96 h dose-response fit): −2.98
effect of CREBBPmt-KRASmt-BRCA1WT combination on sensitivity (50 cancer cell lines): strong resistance
Absolute IC50 (L-363; 96 h, CellTiter-Glo): 0.83 µg/mL
% inhibition at top conc. (L-363; [1]): 99.98%
HillSlope (L-363; 96 h dose-response fit): −2.08
Absolute IC50 (NAMALWA; 96 h, CellTiter-Glo): 0.07 µg/mL
% inhibition at top conc. (NAMALWA; [1]): 99.99%
HillSlope (NAMALWA; 96 h dose-response fit): −3.97
Absolute IC50 (NCI-H929; 96 h, CellTiter-Glo): 0.64 µg/mL
% inhibition at top conc. (NCI-H929; [1]): 99.98%
HillSlope (NCI-H929; 96 h dose-response fit): −1.83
